Experimental data reported in patent US9187453B2, “Heterocyclic compound” (Takeda Pharmaceutical Company Limited, priority 2012, dated 2015).
Where a name gives a salt, the structure may show the parent alone.

Each molecule was assayed on IL-23 (assay: IL-23-induced IL-22 in rat auricle tissue). Details: 10 mg/kg, q.d., oral, 30 min before intradermal mouse IL-23 into right auricle; IL-22 in auricle tissue by ELISA about 24 hr later; mean of n=6.
Assay type: in vivo
Experimental: Recombinant mouse IL-23 (1 μg/20 μL/site) was intradermally administered into the right auricle of 7-8-week-old LEWEIS male rat. As control, phosphate buffered saline (PBS) which is a solvent was administered instead of IL-23. Then, a drug (the compound of Example 103) suspended in 0.5% methyl cellulose (MC) was orally administered 30 min before IL-23 administration, respectively. 0.5% MC was used as vehicle. The auricle tissues of 6 mm diameter were collected about 24 hr after IL-23 administration. Lysis buffer was added thereto, the tissues were crushed using beads, and centrifugalized, and the supernatant was collected. IL-22 in the tissues was measured using ELISA kit (R & D Systems). The result is shown below as a IL-23 inhibitory rate relative to vehicle. (mean of n=6)

| SMILES | IL-23 inhibitory rate relative to vehicle |
| --- | --- |
| CC(C)(CO)n1cc(Nc2nccc(N3CC[C@@](C#N)(C4CC4)C3=O)n2)cn1 [Example 103, (3S)-3-cyclopropyl-1-(2-((1-(1-hydroxy-2-methylpropan-2-yl)-1H-pyrazol-4-yl)amino)pyrimidin-4-yl)-2-oxopyrrolidine-3-carbonitrile] | 79% |

These molecules were tested against T1, Tyk2 (Homo sapiens, UniProt P29597) (assay: Tyk2 enzyme inhibition test (LANCE method)). Details: compound 1 μM; Tyk2 (Invitrogen), ULight-JAK1 substrate, ATP; well without enzyme = 100% inhibition; read-out: Tyk2 enzyme inhibitory activity (%, 1 μM).
T1 construct: purchased Invitrogen
Assay type: biochemical
Experimental: Tyk2 enzyme inhibitory activity of test compounds was measured by LANCE method (PerkinElmer). First, a test compound diluted with assay buffer (50 mM HEPES (pH=7.5), […], 1 mM EGTA, 2 mM DTT, 0.01% Tween20, 0.01% BSA) was added to 384-well plate at 2 μL each. Then, a Tyk2 (Invitrogen) solution and a fluorescence-labeled peptide substrate (ULight-JAK1, PerkinElmer) solution diluted with assay buffer at 375 ng/mL and 300 nM, respectively were added at 2 μL each. Then, enzyme reaction was started by adding 2 μL each of ATP solution prepared with assay buffer at 30 μM. After the reaction at room temperature for 1 hr, Detection Buffer (PerkinElmer) prepared to be 20 mM EDTA, 4 nM europium-labeled anti-phosphotyrosine antibody (PerkinElmer) was added at 6 μL each. After standing at room temperature for 1 hr, fluorescence intensity (excitation wavelength 340 nm, fluorescence wavelength 665 nm, delay time 100 microsecond) was measured by a plate reader, Envision (PerkinElmer). The inhibitory activity of each compound was calculated as relative value where fluorescence intensity of a well without enzyme is considered as 100% inhibition.

T1 sequence (P29597 whole entry): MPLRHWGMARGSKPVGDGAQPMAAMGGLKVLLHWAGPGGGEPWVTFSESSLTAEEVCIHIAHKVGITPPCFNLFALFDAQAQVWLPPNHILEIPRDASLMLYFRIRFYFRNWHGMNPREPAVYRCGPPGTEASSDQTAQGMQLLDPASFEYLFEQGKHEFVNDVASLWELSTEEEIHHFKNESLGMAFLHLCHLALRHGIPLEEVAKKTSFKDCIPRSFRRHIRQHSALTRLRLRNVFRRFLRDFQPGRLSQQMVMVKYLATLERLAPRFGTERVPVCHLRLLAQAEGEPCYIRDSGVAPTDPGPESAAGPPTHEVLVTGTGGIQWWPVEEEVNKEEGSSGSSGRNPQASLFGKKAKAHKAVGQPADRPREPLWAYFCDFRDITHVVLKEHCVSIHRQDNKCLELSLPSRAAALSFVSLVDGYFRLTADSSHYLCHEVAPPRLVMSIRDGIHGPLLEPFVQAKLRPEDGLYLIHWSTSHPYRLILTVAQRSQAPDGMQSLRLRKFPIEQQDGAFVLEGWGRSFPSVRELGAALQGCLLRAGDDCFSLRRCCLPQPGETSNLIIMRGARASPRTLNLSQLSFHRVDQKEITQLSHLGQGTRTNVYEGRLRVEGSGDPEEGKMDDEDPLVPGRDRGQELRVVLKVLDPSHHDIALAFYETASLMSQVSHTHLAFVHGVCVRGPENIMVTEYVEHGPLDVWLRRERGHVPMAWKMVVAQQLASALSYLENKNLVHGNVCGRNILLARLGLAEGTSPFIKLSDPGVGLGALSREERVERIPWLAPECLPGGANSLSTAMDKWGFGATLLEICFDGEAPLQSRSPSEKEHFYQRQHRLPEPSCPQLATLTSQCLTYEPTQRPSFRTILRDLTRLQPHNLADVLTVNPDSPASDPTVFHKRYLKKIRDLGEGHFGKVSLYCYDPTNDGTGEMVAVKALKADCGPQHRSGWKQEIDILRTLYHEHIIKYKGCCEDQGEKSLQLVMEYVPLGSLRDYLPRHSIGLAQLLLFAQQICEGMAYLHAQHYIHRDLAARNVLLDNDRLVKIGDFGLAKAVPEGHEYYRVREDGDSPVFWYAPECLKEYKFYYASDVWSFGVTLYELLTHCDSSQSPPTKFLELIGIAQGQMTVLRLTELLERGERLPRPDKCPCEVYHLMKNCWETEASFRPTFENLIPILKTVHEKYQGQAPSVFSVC

| inhibition at 1 µM | SMILES |
| --- | --- |
| 20% | CCC1(C#N)CCN(c2ccnc(NCc3ccco3)n2)C1=O (centres unmarked) [Example 72, 3-ethyl-1-(2-((2-furylmethyl)amino)pyrimidin-4-yl)-2-oxopyrrolidine-3carbonitrile] |
| 22% | CCC1(C#N)CCN(c2ccnc(NCC3CC3)n2)C1=O (centres unmarked) [Example 77, 1-(2-((cyclopropylmethyl)amino)pyrimidin-4-yl)-3-ethyl-2-oxopyrrolidine-3-carbonitrile] |
| 100% | CC(C)[C@]1(C#N)CCN(c2ccnc(Nc3cnn(CC(N)=O)c3)n2)C1=O [Example 85, 2-(4-((4-((3S)-3-cyano-3-isopropyl-2-oxopyrrolidin-1-yl)pyrimidin-2-yl)amino)-1H-pyrazol-1-yl)acetamide hydrochloride] |
| 100% | CNC(=O)Cn1cc(Nc2nccc(N3CC[C@@](C#N)(C(C)C)C3=O)n2)cn1 [Example 86, 2-(4-((4-((3S)-3-cyano-3-isopropyl-2-oxopyrrolidin-1-yl)pyrimidin-2-yl)amino)-1H-pyrazol-1-yl)-N-methylacetamide hydrochloride] |
| 100% | CC(C)[C@]1(C#N)CCN(c2ccnc(Nc3cnn(CC(=O)N(C)C)c3)n2)C1=O [Example 87, 2-(4-((4-((3S)-3-cyano-3-isopropyl-2-oxopyrrolidin-1-yl)pyrimidin-2-yl)amino)-1H-pyrazol-1-yl)-N,N-dimethylacetamide hydrochloride] |
| 88% | Cn1cc(Nc2nccc(N3CCCC(C)(C)C3=O)n2)cn1 [Example 101, 3,3-dimethyl-1-(2-((1-methyl-1H-pyrazol-4-yl)amino)pyrimidin-4-yl) piperidin-2-one hydrochloride] |
| 100% | CC(C)(CO)n1cc(Nc2nccc(N3CC[C@@](C#N)(C4CC4)C3=O)n2)cn1 [Example 103, (3S)-3-cyclopropyl-1-(2-((1-(1-hydroxy-2-methylpropan-2-yl)-1H-pyrazol-4-yl)amino)pyrimidin-4-yl)-2-oxopyrrolidine-3-carbonitrile] |
| 99% | CC(C)(C(N)=O)n1cc(Nc2nccc(N3CC[C@@](C#N)(C4CC4)C3=O)n2)cn1 [Example 109, 2-(4-((4-((3S)-3-cyano-3-cyclopropyl-2-oxopyrrolidin-1-yl)pyrimidin-2-yl)amino)-1H-pyrazol-1-yl)-2-methylpropanamide hydrochloride] |
| 100% | N#C[C@@]1(C2CC2)CCN(c2ccnc(Nc3cnn(C4(CO)CC4)c3)n2)C1=O [Example 128, (3S)-3-cyclopropyl-1-(2-((1-(1-(hydroxymethyl)cyclopropyl)-1H-pyrazol-4-yl)amino)pyrimidin-4-yl)-2-oxopyrrolidine-3-carbonitrile] |
| 24% | CNC(=O)Cn1cc(Nc2nccc(N3CC[C@](C#N)(C4CC4)C3=O)n2)cn1 [Example 133, 2-(4-((4-((3R)-3-cyano-3-cyclopropyl-2-oxopyrrolidin-1-yl)pyrimidin-2-yl)amino)-1H-pyrazol-1-yl)-N-methylacetamide hydrochloride] |
| 99% | CNC(=O)Cn1cc(Nc2nccc(N3CC[C@@](C#N)(C4CC4)C3=O)n2)cn1 [Example 134, 2-(4-((4-((3S)-3-cyano-3-cyclopropyl-2-oxopyrrolidin-1-yl)pyrimidin-2-yl)amino)-1H-pyrazol-1-yl)-N-methylacetamide hydrochloride] |
| 99% | CC(C)[C@]1(C#N)CCN(c2ccnc(Nc3cnn(CCC(=O)N(C)C)c3)n2)C1=O [Example 265, 3-(4-((4-((3S)-3-cyano-3-isopropyl-2-oxopyrrolidin-1-yl)pyrimidin-2-yl)amino)-1H-pyrazol-1-yl)-N,N-dimethylpropanamide] |

More lines, now with the values behind:

| SMILES | inhibition at 1 µM |
| --- | --- |
| CCC1(C#N)CCN(c2ccnc(Nc3cnn(C)c3)n2)C1=O (centres unmarked) [Example 1, 3-ethyl-1-(2-((1-methyl-1H-pyrazol-4-yl)amino)pyrimidin-4-yl)-2-oxopyrrolidine-3-carbonitrile] | 99% |
| CC[C@]1(C#N)CCN(c2ccnc(Nc3ccc(N4CCOCC4)cc3)n2)C1=O [Example 4, (3R)-3-ethyl-1-(2-((4-(morpholin-4-yl)phenyl)amino)pyrimidin-4-yl)-2-oxopyrrolidine-3-carbonitrile] | 100% |
| CC(C)[C@]1(C#N)CCN(c2ccnc(Nc3ccc(N4CCOCC4)cc3)n2)C1=O [Example 7, (3S)-3-isopropyl-1-(2-((4-(morpholin-4-yl)phenyl)amino)pyrimidin-4-yl)-2-oxopyrrolidine-3-carbonitrile] | 100% |
| CCC1(CC)CCN(c2ccnc(Nc3cnn(C)c3)n2)C1=O [Example 10, 3,3-diethyl-1-(2-((1-methyl-1H-pyrazol-4-yl)amino)pyrimidin-4-yl)pyrrolidin-2-one hydrochloride] | 97% |
| Cn1cc(Nc2nccc(N3CCCC3=O)n2)cn1 [Example 12, 1-(2-((1-methyl-H-pyrazol-4-yl)amino)pyrimidin-4-yl)pyrrolidin-2-one] | 51% |
| CCC1(CC)CCN(c2ccnc(Nc3ccccc3)n2)C1=O [Example 15, 1-(2-anilinopyrimidin-4-yl)-3,3-diethylpyrrolidin-2-one] | 89% |
| Cn1cc(Nc2ncc(F)c(N3CCC(C)(C)C3=O)n2)cn1 [Example 29, 1-(5-fluoro-2-((1-methyl-1H-pyrazol-4-yl)amino)pyrimidin-4-yl)-3,3-dimethylpyrrolidin-2-one] | 91% |
| CCC1(CC#N)CCN(c2ccnc(Nc3cnn(C)c3)n2)C1=O (centres unmarked) [Example 31, (3-ethyl-1-(2-((1-methyl-1H-pyrazol-4-yl)amino)pyrimidin-4-yl)-2-oxopyrrolidin-3-yl)acetonitrile] | 98% |
| CCC1(CC)CC(C)N(c2ccnc(Nc3cnn(C)c3)n2)C1=O (centres unmarked) [Example 33, 3,3-diethyl-5-methyl-1-(2-((1-methyl-1H-pyrazol-4-yl)amino)pyrimidin-4-yl)pyrrolidin-2-one hydrochloride] | 97% |
| CCC1(C#N)CCN(c2ccnc(NCc3ccc(C#N)cc3)n2)C1=O (centres unmarked) [Example 61, 1-(2-((4-cyanobenzyl)amino)pyrimidin-4-yl)-3-ethyl-2-oxopyrrolidine-3-carbonitrile] | 14% |
